The record followed here is ChEMBL document CHEMBL1145068 (J Med Chem, 2003).

The target in one test is D(1A) dopamine receptor (Rattus norvegicus, UniProt P18901). Kind of test: Binding affinity for rat striatum Dopamine receptor D1 by […] displacement. The format is tissue-based.
The target in the next test is D(2) dopamine receptor (Rattus norvegicus, UniProt P61169). Nature of the test: Binding affinity for rat striatum Dopamine receptor D2 by [3H]spiperone displacement. The format is tissue-based.
In the next test the target is D(3) dopamine receptor (Rattus norvegicus, UniProt P19020). Kind of test: biochemical.
The target in test [1] is T1, Alpha-1A adrenergic receptor (Rattus norvegicus, UniProt P43140).
T1 sequence (P43140 whole entry): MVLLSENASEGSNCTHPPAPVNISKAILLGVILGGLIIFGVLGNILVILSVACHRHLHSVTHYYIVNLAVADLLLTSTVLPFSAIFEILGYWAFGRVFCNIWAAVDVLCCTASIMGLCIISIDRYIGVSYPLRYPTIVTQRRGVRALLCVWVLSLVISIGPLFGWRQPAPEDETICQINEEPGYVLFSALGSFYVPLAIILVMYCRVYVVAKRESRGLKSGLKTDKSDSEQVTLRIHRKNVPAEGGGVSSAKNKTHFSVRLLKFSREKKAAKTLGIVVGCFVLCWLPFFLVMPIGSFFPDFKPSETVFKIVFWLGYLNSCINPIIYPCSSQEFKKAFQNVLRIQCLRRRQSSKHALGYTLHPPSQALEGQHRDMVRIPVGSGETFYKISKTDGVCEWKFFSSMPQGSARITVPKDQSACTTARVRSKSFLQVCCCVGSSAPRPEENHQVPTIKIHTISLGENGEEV
Kind of test: Binding affinity for rat cortex alpha-1 adrenergic receptor by inhibition of [3H]prazosin binding.

Test [2] has as its target T2, Alpha-2A adrenergic receptor (Rattus norvegicus, UniProt P22909).
T2 sequence (P22909 whole entry): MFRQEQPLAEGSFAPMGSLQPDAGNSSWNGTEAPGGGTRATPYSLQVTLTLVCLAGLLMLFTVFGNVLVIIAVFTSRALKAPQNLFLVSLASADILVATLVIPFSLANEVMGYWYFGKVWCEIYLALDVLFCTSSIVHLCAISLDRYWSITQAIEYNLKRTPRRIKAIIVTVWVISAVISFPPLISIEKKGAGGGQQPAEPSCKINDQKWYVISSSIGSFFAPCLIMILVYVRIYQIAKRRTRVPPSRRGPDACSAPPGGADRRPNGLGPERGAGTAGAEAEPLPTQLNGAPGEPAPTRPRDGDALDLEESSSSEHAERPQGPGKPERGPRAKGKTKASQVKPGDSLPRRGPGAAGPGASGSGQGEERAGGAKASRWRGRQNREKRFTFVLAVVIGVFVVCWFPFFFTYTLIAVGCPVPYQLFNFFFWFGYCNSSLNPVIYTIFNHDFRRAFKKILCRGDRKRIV
Kind of test: Binding affinity for rat cortex Alpha-2 adrenergic receptor was determined using [3H]-RX 81002 binding.

In test [3] the target is T3, 5-hydroxytryptamine receptor 1A (Rattus norvegicus, UniProt P19327).
T3 sequence (P19327 whole entry): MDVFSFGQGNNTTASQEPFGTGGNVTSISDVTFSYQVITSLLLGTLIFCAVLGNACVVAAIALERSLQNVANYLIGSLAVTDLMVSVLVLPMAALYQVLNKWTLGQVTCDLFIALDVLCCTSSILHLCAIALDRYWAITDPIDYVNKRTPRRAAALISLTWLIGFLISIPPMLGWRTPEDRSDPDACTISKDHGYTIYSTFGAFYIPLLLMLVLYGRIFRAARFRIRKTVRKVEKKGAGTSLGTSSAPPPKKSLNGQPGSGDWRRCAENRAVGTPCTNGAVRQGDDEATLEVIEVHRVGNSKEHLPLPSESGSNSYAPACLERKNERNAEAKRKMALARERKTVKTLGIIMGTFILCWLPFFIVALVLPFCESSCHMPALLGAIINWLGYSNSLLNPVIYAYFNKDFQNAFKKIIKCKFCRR
Kind of test: Binding affinity for rat hippocampus 5-hydroxytryptamine 1A receptor by inhibition of [3H]8-OH-DPAT binding. Format: tissue-based.

The target of test [4] is D(3) dopamine receptor (Homo sapiens) (UniProt P35462). Kind of test: Maximal stimulation reached was evaluated by using [35S]- GTP-gamma S radioligand. The format is functional. In general terms: Binding of GTPγS marks nucleotide exchange on a G protein.
In test [5] the target is T2, Alpha-2A adrenergic receptor. Kind of test: Binding affinity for rat cortex alpha-2 adrenergic receptor was determined using [3H]-RX 81002 binding.

Sequence of D(3) dopamine receptor (P19020 whole entry): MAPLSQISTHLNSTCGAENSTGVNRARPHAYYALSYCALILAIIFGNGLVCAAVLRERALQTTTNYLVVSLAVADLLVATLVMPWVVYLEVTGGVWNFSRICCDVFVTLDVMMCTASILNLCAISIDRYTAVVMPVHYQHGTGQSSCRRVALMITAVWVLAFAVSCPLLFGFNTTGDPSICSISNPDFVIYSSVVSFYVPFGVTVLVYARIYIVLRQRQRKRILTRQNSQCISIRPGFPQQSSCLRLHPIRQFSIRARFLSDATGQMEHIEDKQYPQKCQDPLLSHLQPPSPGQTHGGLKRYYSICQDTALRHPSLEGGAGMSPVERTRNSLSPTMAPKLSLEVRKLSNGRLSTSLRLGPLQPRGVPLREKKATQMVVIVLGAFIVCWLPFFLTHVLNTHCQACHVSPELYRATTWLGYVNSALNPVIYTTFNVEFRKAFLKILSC
Sequence of D(2) dopamine receptor (P61169 whole entry): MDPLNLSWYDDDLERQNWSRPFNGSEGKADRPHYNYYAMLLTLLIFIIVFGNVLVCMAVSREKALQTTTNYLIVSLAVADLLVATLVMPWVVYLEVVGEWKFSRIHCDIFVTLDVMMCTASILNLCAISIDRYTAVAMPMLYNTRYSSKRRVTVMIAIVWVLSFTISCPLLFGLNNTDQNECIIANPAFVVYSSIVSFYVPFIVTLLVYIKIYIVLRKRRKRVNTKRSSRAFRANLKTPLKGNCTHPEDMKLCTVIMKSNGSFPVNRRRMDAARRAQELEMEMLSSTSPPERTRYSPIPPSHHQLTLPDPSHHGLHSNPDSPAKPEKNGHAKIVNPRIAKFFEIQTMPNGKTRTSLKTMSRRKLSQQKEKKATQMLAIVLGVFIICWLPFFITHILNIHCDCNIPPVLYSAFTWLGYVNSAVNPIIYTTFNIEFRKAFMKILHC
Sequence of D(1A) dopamine receptor (P18901 whole entry): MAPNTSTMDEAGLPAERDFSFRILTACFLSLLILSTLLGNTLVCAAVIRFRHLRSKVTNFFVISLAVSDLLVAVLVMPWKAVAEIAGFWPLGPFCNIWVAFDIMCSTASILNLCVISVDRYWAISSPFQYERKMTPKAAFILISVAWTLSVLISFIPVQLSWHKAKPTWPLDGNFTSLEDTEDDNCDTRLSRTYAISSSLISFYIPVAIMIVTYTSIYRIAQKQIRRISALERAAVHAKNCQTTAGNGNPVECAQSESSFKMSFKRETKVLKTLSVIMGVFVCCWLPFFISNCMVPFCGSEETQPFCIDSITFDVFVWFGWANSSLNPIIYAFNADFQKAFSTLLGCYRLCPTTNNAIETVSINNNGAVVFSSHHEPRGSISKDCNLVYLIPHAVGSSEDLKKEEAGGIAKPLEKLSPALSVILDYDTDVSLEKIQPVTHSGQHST
Sequence of D(3) dopamine receptor (Homo sapiens) (P35462 whole entry): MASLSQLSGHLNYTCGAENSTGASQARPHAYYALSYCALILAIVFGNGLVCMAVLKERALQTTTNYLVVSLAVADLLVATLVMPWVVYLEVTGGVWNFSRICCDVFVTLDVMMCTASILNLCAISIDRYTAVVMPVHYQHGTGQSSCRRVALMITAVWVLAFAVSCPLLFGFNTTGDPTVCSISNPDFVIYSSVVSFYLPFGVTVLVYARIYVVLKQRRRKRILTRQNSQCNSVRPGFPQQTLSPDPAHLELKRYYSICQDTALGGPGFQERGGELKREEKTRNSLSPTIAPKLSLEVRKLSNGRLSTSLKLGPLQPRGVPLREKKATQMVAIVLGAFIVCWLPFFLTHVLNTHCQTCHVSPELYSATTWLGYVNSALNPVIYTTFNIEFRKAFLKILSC

For orientation: Ki means the dissociation constant of the complex between target and ligand, obtained from inhibition or displacement. Consider `COc1ccccc1N1CCN(CC2CCN(C(=O)c3cc4ccccc4o3)CC2)CC1`, for which the Ki worked out at 2680 nM at D(1A) dopamine receptor, 244 nM at D(2) dopamine receptor and 74 nM on D(3) dopamine receptor.

The molecule `COc1ccccc1N1CCN(CCCCNC(=O)[C@H]2Cc3ccccc3CN2)CC1` had a Ki on D(3) dopamine receptor of 4.3 nM.

`O=C(NCCCCN1CCN(c2ccc(Cl)cc2Cl)CC1)c1cc2ccccc2[nH]1`: the values for the inhibitory constant (Ki) (in test [1]; in test [2]; on D(1A) dopamine receptor) were 547 nM, greater than 10000 nM and greater than 10000 nM, respectively.

For `COc1ccccc1N1CCN(CCCCN2CCn3c(cc4ccccc43)C2=O)CC1`, the Ki in test [3] is 4.9 nM; in test [1], 33 nM; in test [2], 89 nM; at D(1A) dopamine receptor, 1570 nM; on D(2) dopamine receptor, 45 nM; at D(3) dopamine receptor, 0.87 nM.

Consider `O=C(NCCCCN1CCN(c2ccc(Cl)cc2Cl)CC1)c1cc2cc(Cl)ccc2[nH]1`, for which the Ki is 8100 nM in test [1], greater than 10000 nM in test [2], greater than 10000 nM on D(1A) dopamine receptor and 0.38 nM at D(3) dopamine receptor.

For `NCCc1c[nH]c2ccc(O)cc12`, the Activity in test [4] was determined as 30 µM.

On to `COc1ccccc1N1CCN(CCCCNC(=O)c2cc3ccccc3[nH]2)CC1`, for which the Ki was 11.8 nM in test [3]; 666 nM in test [1]; 76 nM in test [2]; 970 nM on D(1A) dopamine receptor; 160 nM at D(2) dopamine receptor; 2.9 nM on D(3) dopamine receptor.

In the case of `O=C(NCCCCN1CCN(c2ccc(Cl)cc2Cl)CC1)c1cc2ccccc2o1`, the Ki is 908 nM in test [3]; 779 nM in test [1]; 1890 nM in test [2]; 7660 nM at D(1A) dopamine receptor; 409 nM at D(2) dopamine receptor; 0.41 nM on D(3) dopamine receptor.

`COc1ccccc1N1CCN(CCCCNC(=O)[C@@H]2Cc3ccccc3CN2)CC1` gave a Ki on D(3) dopamine receptor of 9.2 nM.

Consider `N#Cc1ccc(N2CCN(CCCCNC(=O)c3cc4ccccc4o3)CC2)cc1`, for which affinity on D(3) dopamine receptor was put at a Ki of 41.3 nM. Against the preceding molecule, the Ki is about 4.5-fold higher.

Take `COc1ccccc1N1CCN(CCCCNC(=O)c2cc3ccccc3cn2)CC1`: the Ki turned out to be 3.12 nM in test [3]; 5.8 nM in test [1]; 76 nM in test [5]; 1480 nM on D(1A) dopamine receptor; 75 nM on D(2) dopamine receptor; 0.49 nM on D(3) dopamine receptor.

For the molecule `COc1ccccc1N1CCN(CCNCc2coc(-c3ccc4ccccc4c3)n2)CC1`, the Ki on D(1A) dopamine receptor is greater than 10000 nM; at D(2) dopamine receptor, 86 nM; on D(3) dopamine receptor it was 295 nM.

Consider `COc1ccccc1N1CCN(CCCCNC(=O)c2ccc3ccccc3c2)CC1` [BP-897], for which the affinity in test [2] corresponds to a Ki of 83 nM.

Consider `COc1ccccc1N1CCN(CCCCNC(=O)c2ccc3ccccc3n2)CC1`, for which the Ki on D(1A) dopamine receptor was 1350 nM; on D(2) dopamine receptor, 83 nM; at D(3) dopamine receptor, 4.8 nM.

`COc1ccccc1N1CCN(CCCCNC(=O)c2cc3ccccc3o2)CC1`: the values for the Ki in test [1] and in test [2] were 36 nM and 54 nM, respectively.

Consider `O=C(NCCCCN1CCN(c2ccc(Cl)cc2Cl)CC1)c1cc2ccccc2cn1`, for which the Ki in test [3] worked out at 1050 nM; in test [1] it was 629 nM; in test [2], 1050 nM; on D(1A) dopamine receptor, 7750 nM; at D(2) dopamine receptor, 342 nM; on D(3) dopamine receptor, 0.66 nM.

Consider `O=C(NCCCCN1CCN(c2ccc(Cl)c(Cl)c2)CC1)c1cc2ccccc2o1`, for which the values for the Ki on D(1A) dopamine receptor, on D(2) dopamine receptor and on D(3) dopamine receptor were 1660 nM, 333 nM and 7.8 nM, respectively.

Regarding `COc1ccccc1N1CCN(CCCCNC(=O)c2cnc3ccccc3n2)CC1`, the Ki came out at 1440 nM at D(1A) dopamine receptor, 84 nM on D(2) dopamine receptor and 11 nM on D(3) dopamine receptor.

As for `COc1ccccc1N1CCN(CCNCc2coc(-c3cc4ccccc4o3)n2)CC1`, the Ki on D(1A) dopamine receptor is greater than 10000 nM; on D(2) dopamine receptor, 518 nM; on D(3) dopamine receptor, 759 nM.

On to `COc1ccccc1N1CCN(CCCCNC(=O)c2nc3ccccc3n3cccc23)CC1`, for which the Ki was 778 nM on D(1A) dopamine receptor, 59 nM on D(2) dopamine receptor and 28 nM at D(3) dopamine receptor.
